# Experimental data taken from patent publication US20140371165A1, “Identification of NSC23925 Isomers to Reverse Multidrug Resistance in Human Cancers” (priority 2012, published 2014).
# Structures can show the parent of a compound that is named as a salt.
# Key:
# MCF-7adr = assay: MTT cytotoxicity assay and reversal of MDR in MCF-7adr; type: cell-based, human
# Description: (§1) A panel of parental cancer cell line and their daughter resistant cell lines, displaying MDR phenotype were used in this study. Human ovarian cancer cell line SKOV-3, breast cancer cell line MCF-7 and colon cancer cell line SW480, the osteosarcoma cell line U-2OS, KHOS, uterine sarcoma cell line MESSA and its doxorubicin selected drug resistant cell line MESSA/Dx5, non-small cell lung cancer cell line H-69 and its doxorubicin selected drug resistant cell line H-69AR (overexpress MRP1) were obtained from the ATCC (Rockville, Md.). Dr. Efstathios Gonos (Institute of Biological Research & Biotechnology, Athens, Greece) provided the doxorubicin resistant U-2OS R2 (referred in the text below as U-2OSDR), KHOS R2 cell lines. Dr. Erasmus Schneider (Wadsworth Center, Albany) provided the mitoxantrane resistant breast cancer MCF-7/MX (overexpress BCRP) cell line. All the cell lines were cultured in RPMI 1640 (Invitrogen, Carlsbad, Calif.) supplemented with 10% fetal bovine serum, 100-units/ml penicillin and 100 μg/ml streptomycin (Invitrogen). Cells were incubated at 37° C. in 5% CO2-95% air atmosphere and passaged when near confluent monolayers were achieved using 2% trypsin-EDTA solution. […] The fresh chemotherapy drugs were obtained from the pharmacy at the Massachusetts General Hospital and stored at −20° C.
# (§2) To evaluate for reversal of Pgp-mediated MDR, SKOV-3TR, MCF-7adr and SW480TR cell lines were seeded into 96-well tissue culture plate at 2,000 cells per well with varying concentrations of chemotherapy drugs and NSC23925b for 6 days. Cell proliferation IC50 (concentration required for 50% inhibition) and MDR reversal IC50 were determined from dose-response curves carried out in triplicate in 96-well plate. Fold of reverse resistance for individual drugs were defined as the IC50 of MDR cells without NSC23925b treatment divided by the IC50 of MDR cells treated with NSC23925b. […] Drug cytotoxicity was assessed in vitro using the MTT assay as previously described. […] Response curves were fitted with use of GraphPad PRISM 4 software (GraphPad Software).
# MCF-7adr and SW480TR cells were treated with paclitaxel (FIGS. 2A-B), doxorubicin (FIGS. 2C-D) or mitoxantrane (FIGS. 2E-F) and NSC23925b in RPMI1640 complete media at the indicated concentrations. The relative sensitivity of each line to the indicated drugs was determined by MTT analysis 6 days post-treatment.
# [1] = tested on: SKOV-3TR xenograft tumors; assay: SKOV-3TR xenograft tumor growth in nude mice
# Description: The Crl:SHO-Prkdc^SCIDHr^hr nude female mice at approximately 3-4 weeks of age were purchased from The Charles River Laboratories (Ann Arbor, Mich.). Animal studies were carried out with protocols approved by the Massachusetts General Hospital Subcommittee on Research Animal Care (SRAC). To determine the effect of NSC23925b on paclitaxel sensitivity in xenograft model, 5×10^6 SKOV-3TR cells were injected subcutaneously with matrigel (BD Biosciences, San Jose, Calif.) on day one. Two weeks after injection, the mice were divided into four groups to start the treatments. Group one was received intraperitoneal (i.p) injection with normal saline, group two with paclitaxel (20 mg/kg), group three with NSC23925b (40 mg/kg). […] All four groups were treated twice a week for two weeks. The health of the mice and evidence of tumor growth were examined daily. Tumors were measured twice a week with a digital caliper. Tumor volume (mm^3) was calculated as (W^2×L)/2, where W is width and L is length. The curve of tumor growth was drawn according to tumor volume by using of GraphPad PRISM 4 software.
# To further evaluate the effects of NSC23925b and paclitaxel combination therapy on the tumor growth of resistant cells, the growth of xenograft tumors were examined. A well-characterized ovarian cancer MDR cell line SKOV-3TR was chosen for in vivo studies. […] Tumors were measured twice a week with a digital caliper. Tumor volume (mm^3) was calculated as (W^2×L)/2, where W is width and L is length (FIG. 5A). Representative images of dissected tumor tissues from treated nude mice.
# SKOV-3TR = assay: MTT cytotoxicity assay and reversal of MDR in SKOV-3TR; type: cell-based, human
# Description: as §1, §2
# Structure and activity relationship (SAR) of the four NSC23925 isomers for reversing MDR were evaluated in human ovarian cancer MDR cell line SKOV-3TR by MTT assay (FIGS. 1A-D). Cells were treated with the paclitaxel and NSC23925 diastereomers NSC23925a (FIG. 1A), NSC23925b (FIG. 1B), NSC23925c (FIG. 1C) and NSC23925d (FIG. 1D) in RPMI1640 complete media at the indicated concentrations. The relative sensitivity of each line to paclitaxel was determined by MTT analysis 6 days post-treatment.
smiles,measurement,setting,value
"COc1ccc(-c2cc([C@H](O)[C@H]3CCCCN3)c3ccccc3n2)cc1 [NSC23925b, (2-(4-methoxyphenyl)quinolin-4-yl)(piperidin-2-yl)methanol hydrochloride]",fold-reversal of drug resistance,"MCF-7adr; Doxorubicin, NSC23925b 0.1 μM",1.4 fold
same,fold-reversal of drug resistance,"MCF-7adr; Doxorubicin, NSC23925b 0.5 μM",4 fold
same,fold-reversal of drug resistance,"MCF-7adr; Doxorubicin, NSC23925b 1 μM",15 fold
same,"reverse paclitaxel, doxorubicin, and mitoxantrane resistance",MCF-7adr; MTT 6 days post-treatment,able to reverse
same,fold-reversal of drug resistance,"MCF-7adr; Mitoxantrane, NSC23925b 0.1 μM",1.1 fold
same,fold-reversal of drug resistance,"MCF-7adr; Mitoxantrane, NSC23925b 0.5 μM",3 fold
same,fold-reversal of drug resistance,"MCF-7adr; Mitoxantrane, NSC23925b 1 μM",6 fold
same,fold-reversal of drug resistance,"MCF-7adr; Paclitaxel, NSC23925b 0.1 μM",1.3 fold
same,fold-reversal of drug resistance,"MCF-7adr; Paclitaxel, NSC23925b 0.5 μM",4 fold
same,fold-reversal of drug resistance,"MCF-7adr; Paclitaxel, NSC23925b 1 μM",12 fold
same,reversal of resistance to paclitaxel in xenograft model,[1]; NSC23925b 50 mg/kg with paclitaxel,almost completely reverse resistance to paclitaxel
same,toxicity on the basis of animal weight and mortality,[1]; NSC23925b administered alone,no significant toxicity
same,effect on paclitaxel-induced toxicity,[1]; NSC23925b combined with paclitaxel,reducing paclitaxel-induced toxicity in some animals
same,"inhibitory effect on tumor growth, combination versus single agents",[1]; NSC23925b with paclitaxel (20 mg/kg) i.p. twice a week for two weeks,significantly greater inhibitory effect
same,"effect on paclitaxel resistant tumor cell growth, single agent","[1]; alone, i.p. twice a week for two weeks, paclitaxel 20 mg/kg or NSC23925b 40 mg/kg",no significant effects
same,fold-reversal of drug resistance,"SKOV-3TR; Doxorubicin, NSC23925b 0.1 μM",2 fold
same,fold-reversal of drug resistance,"SKOV-3TR; Doxorubicin, NSC23925b 0.5 μM",9 fold
same,fold-reversal of drug resistance,"SKOV-3TR; Doxorubicin, NSC23925b 1 μM",32 fold
same,fold-reversal of drug resistance,"SKOV-3TR; Mitoxantrane, NSC23925b 0.1 μM",1.2 fold
same,fold-reversal of drug resistance,"SKOV-3TR; Mitoxantrane, NSC23925b 0.5 μM",2.6 fold
same,fold-reversal of drug resistance,"SKOV-3TR; Mitoxantrane, NSC23925b 1 μM",8 fold
same,fold-reversal of drug resistance,"SKOV-3TR; Paclitaxel, NSC23925b 0.1 μM",2 fold
same,fold-reversal of drug resistance,"SKOV-3TR; Paclitaxel, NSC23925b 0.5 μM",7 fold
same,fold-reversal of drug resistance,"SKOV-3TR; Paclitaxel, NSC23925b 1 μM",28 fold
same,potency of isomer on reversing drug resistance,"SKOV-3TR; with paclitaxel, MTT 6 days post-treatment",most potent isomer
